pIC50: −log10 of the molar value.
Legend:
[1] = test system: AGS; assay: Anti-proliferative 2D CTG assay, AGS; type: cell-based; settings: Homo sapiens, AGS, 96 h, AGS cells, 4 days incubation, read-out: AGS cell IC50
Description: (§1) 1.1 Day 0 Cell Culture and Plating
(§2) Cells in a logarithmic growth phase were harvested and the cells were counted by using a […]. Cell viability was tested by using a trypan blue exclusion method to ensure that cell viability was above 90%. The cell concentration was adjusted to the desired final density, and 90 μL of cell suspension was added to a 96-well plate, then the cells were incubated overnight at 37° C., 5% CO2 and 95% humidity.
(§3) 10 μL PBS was added to each well of the TO plate containing cells. The CTG reagent was thawed and the plate was equilibrated to room temperature for 30 minutes. The CTG solution of 50 µL/well was added to each well. The cells were lysed by shaking on an orbital shaker for 5 minutes. The plate was left at room temperature for 20 minutes to stabilize the luminescence signal. The TO fluorescence signal value was read.
(§4) From the 10 mM stock solution, with a ratio of 1:5, 9-point serial dilutions were performed. The 10× medium containing the compound was transferred into corresponding wells of the 96 wells. The final maximum compound concentration was […] and the final DMSO concentration was 0.1%. The 96-well plate was placed in a 37° C. incubator and incubated for 4 days.
(§5) 50 μL/well of detection reagent (CTG) was added to the cells, and the signal was read in an Envision machine.
(§6) The percent inhibition (%) at each compound concentration was calculated from the signal in the HPE and ZPE control wells and the fluorescence signal in the individual compound wells included in each assay plate. […] The compound concentration required for inhibitory concentration at 50% (IC50) was determined using a four-parameter logarithmic dose-response equation by testing the concentration of the compound and the inhibition percentage value. The endpoint value (IC50) of the reference compound was assessed in each experiment as a quality control measure. If the endpoint value is within three times the expected value, the experiment may be considered acceptable.

[2] = target: KRAS^G12D/cRAF (Homo sapiens, UniProt P01116, G12D); assay: KRAS G12D/cRAF binding test (Alphalisa); settings: His-tagged KRAS G12D with GMPPNP, GST-tagged cRAF
KRAS^G12D/cRAF, sequence (P01116 1-188 isoform P01116-2 G12D): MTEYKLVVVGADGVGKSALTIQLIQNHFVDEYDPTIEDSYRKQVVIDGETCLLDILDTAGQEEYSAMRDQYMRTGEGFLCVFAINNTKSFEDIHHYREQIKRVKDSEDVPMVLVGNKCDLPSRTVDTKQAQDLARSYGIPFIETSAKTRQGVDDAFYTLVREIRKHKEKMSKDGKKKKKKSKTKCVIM
Description: The compound was dissolved in 100% DMSO at a starting concentration of 5 mM and diluted in DMSO with a 3-fold serial dilution method for a total of 8 concentration points. 1 μL of the compound or DMSO at each concentration point was added into 99 μL of the experimental buffer to obtain 10× stock solution.
The ratio for each compound concentration was calculated from the signal of the DMSO control group contained in each assay plate and the Alphalisa signal in each compound well. The compound concentration required for inhibitory concentration at 50% (IC50) was determined using a four-parameter logarithmic dose-response equation by testing the concentration of the compound and the value of the ratio. The endpoint value (IC50) of the reference compound was assessed in each experiment as a quality control measure. If the endpoint value is within three times the expected value, the experiment may be considered acceptable.

[3] = test system: AsPC-1; assay: Anti-proliferative 2D CTG assay, AsPC-1; type: cell-based; settings: Homo sapiens, ASPC1, 96 h, AsPC-1 cells, 4 days incubation, read-out: AsPC-1 cell IC50
Description: as §1, §2, §3, §4, §5, §6

[4] = Pharmacokinetic experiment in mice (single PO or IV administration); settings: male, ICR, mouse, plasma
Description: The purpose of this trial is to study the pharmacokinetic behavior of some compounds of the present invention, and the administration method is: single oral administration (PO) or intravenous administration (IV) to ICR mice.
ICR mice male N=9 original source: Shanghai Sippr-Bk Lab Animal Co., Ltd.
The compounds were weighed and dissolved in the corresponding solution (0.5% CMC+1% tween water solution or 10% PG+10% Solutol®+80% pH3 citrate buffer). The mixture was then shaken well and sonicated to prepare a 1 mg/mL stock solution. Nine mice were orally administered at a dose of 10 mg/kg or intravenously administered at a dose of 2 mg/kg after an overnight fast.
About 90 μL of blood was collected via the submandibular vein per time point, heparin sodium anticoagulant was added, the sample was placed on ice after collection, and plasma was centrifuged within 1 hour (centrifugation conditions: 8,000 rpm, 6 minutes, 2-8° C.). The blood collection timepoints were 0, 0.25, 0.5, 1, 2, 4, 6, 8 and 24 h. The samples were stored in a −20° C. refrigerator.
The plasma sample was 40 μL, 160 μL of ice-cold acetonitrile containing internal standard was added, vortexed for 3 minutes, and centrifuged at 11,000 rpm for 5 minutes. 100 μL of the supernatant was taken and added to 100 μL of water, 5 μL of the sample was taken and injected into LC/MS/MS for analysis.

Compound: [2H]C([2H])([2H])OCC12CCC(CN(c3nc(OCC45CC(=C)CN4CC(=C)C5)nc4c(F)c(-c5cc(O)cc6ccc(F)c(C#C)c56)nc(OC)c34)C1)N2 (single isomer, unassigned) [Example 173]
- pIC50 [1]: 7.58

Compound: [2H]C([2H])([2H])OCC12CCC(CN(c3nc(OCC45CC(=C)CN4CC(=C)C5)nc4c(F)c(-c5cc(O)cc6ccc(F)c(C#C)c56)ncc34)C1)N2 (stereo not drawn) [Example 1, 4-(2-((2,6-dimethylenetetrahydro-1H-pyrrolizin-7a(5H)-yl)methoxy)-8-fluoro-4-(1-((methoxy-d3)methyl)-3,8-diazabicyclo[3.2.1]octan-3-yl)pyrido[4,3-d]pyrimidin-7-yl)-5-ethynyl-6-fluoronaphthalen-2-ol]
- pIC50 [2]: 7.43
- pIC50 [1]: 7.64

Compound: C#Cc1c(F)ccc2cc(O)cc(-c3ncc4c(N5CC6CCC(C(C)(C)O)(C5)N6)nc(OCC56CC(=C)CN5CC(=C)C6)nc4c3F)c12 (stereo not drawn) [Example 2, 4-(2-((2,6-dimethylenetetrahydro-1H-pyrrolizin-7a(5H)-yl)methoxy)-8-fluoro-4-(1-(2-hydroxypropan-2-yl)-3,8-diazabicyclo[3.2.1]octan-3-yl)pyrido[4,3-d]pyrimidin-7-yl)-5-ethynyl-6-fluoronaphthalen-2-ol]
- pIC50 [2]: 7.32
- pIC50 [1]: 6.60

Compound: C#Cc1c(F)ccc2cc(O)cc(-c3ncc4c(N5C[C@@H]6CC[C@](CC)(C5)N6)nc(OCC56CC(=C)CN5CC(=C)C6)nc4c3F)c12 [Example 5, 4-(2-((2,6-dimethylenetetrahydro-1H-pyrrolizin-7a(5H)-yl)methoxy)-4-((1R,5S)-1-ethyl-3,8-diazabicyclo[3.2.1]octan-3-yl)-8-fluoropyrido[4,3-d]pyrimidin-7-yl)-5-ethynyl-6-fluoronaphthalen-2-ol]
- pIC50 [2]: 7.78
- pIC50 [3]: 7.34
- pIC50 [1]: 7.85

Compound: [2H]C([2H])([2H])C12CCC(CN(c3nc(OCC45CC(=C)CN4CC(=C)C5)nc4c(F)c(-c5cc(O)cc6ccc(F)c(C#C)c56)ncc34)C1)N2 (stereo not drawn) [Example 6, 4-(2-((2,6-dimethylenetetrahydro-1H-pyrrolizin-7a(5H)-yl)methoxy)-8-fluoro-4-(1-(methyl-d3)-3,8-diazabicyclo[3.2.1]octan-3-yl)pyrido[4,3-d]pyrimidin-7-yl)-5-ethynyl-6-fluoronaphtha len-2-ol]
- pIC50 [2]: 8.49
- pIC50 [3]: 7.31
- pIC50 [1]: 7.84

Compound: C#Cc1c(F)ccc2cc(O)cc(-c3ncc4c(N5CC6CCC(COC)(C5)N6)nc(OCC56CC(=C)CN5CC(=C)C6)nc4c3F)c12 (stereo not drawn) [Example 8, 4-(2-((2,6-dimethylenetetrahydro-1H-pyrrolizin-7a(5H)-yl)methoxy)-8-fluoro-4-(1-(methoxymethyl)-3,8-diazabicyclo[3.2.1]octan-3-yl)pyrido[4,3-d]pyrimidin-7-yl)-5-ethynyl-6-fluoronaphthalen-2-ol]
- pIC50 [1]: 7.43

Compound: C#Cc1c(F)ccc2cc(O)cc(-c3ncc4c(N5C[C@@H]6CC[C@](C7CC7)(C5)N6)nc(OCC56CC(=C)CN5CC(=C)C6)nc4c3F)c12 [Example 12, 4-(4-((1S,5S)-1-cyclopropyl-3,8-diazabicyclo[3.2.1]octan-3-yl)-2-((2,6-dimethylenetetrahydro-1H-pyrrolizin-7a(5H)-yl)methoxy)-8-fluoropyrido[4,3-d]pyrimidin-7-yl)-5-ethynyl-6-fluoronaphthalen-2-ol]
- pIC50 [2]: 6.99
- pIC50 [3]: 6.66
- pIC50 [1]: 6.98

Compound: [2H]C([2H])([2H])[C@@]12CC[C@@H](CN(c3nc(OC[C@@]45CCCN4C/C(=C\F)C5)nc4c(F)c(-c5cc(O)cc6ccc(F)c(C#C)c56)ncc34)C1)N2 [Example 53, 5-ethynyl-6-fluoro-4-(8-fluoro-2-(((S,Z)-2-(fluoromethylene)tetrahydro-1H-pyrrolizin-7a(5H)-yl)methoxy)-4-((1R,5S)-1-(methyl-d3)-3,8-diazabicyclo [3.2.1]octan-3-yl)pyrido[4,3-d]pyrimidin-7-yl)naphthalen-2-ol]
- pIC50 [2]: 7.78
- pIC50 [1]: 9.00

Compound: C#Cc1c(F)ccc2cc(O)cc(-c3ncc4c(N5C[C@@H]6CC[C@](COC)(C5)N6)nc(OC[C@@]56CCCN5C/C(=C/F)C6)nc4c3F)c12 [Example 82, 5-ethynyl-6-fluoro-4-(8-fluoro-2-(((S,E)-2-(fluoromethylene)tetrahydro-1H-pyrrolizin-7a (5H)-yl)methoxy)-4-((1R,5S)-1-(methoxymethyl)-3,8-diazabicyclo [3.2.1]octan-3-yl)pyrido[4,3-d]pyrimidin-7-yl)naphthalen-2-ol]
- pIC50 [2]: 8.09

Compound: [2H]C([2H])([2H])Oc1nc(-c2cc(O)cc3ccc(F)c(C#C)c23)c(F)c2nc(OCC34CC(=C)CN3CC(=C)C4)nc(N3CC4CCC(CC)(C3)N4)c12 (stereo not drawn) [Example 201, 4-(2-((2,6-dimethylenetetrahydro-1H-pyrrolizin-7a(5H)-yl)methoxy)-4-(1-ethyl-3,8-diazabicyclo[3.2.1]octan-3-yl)-8-fluoro-5-(methoxy-d3)pyrido[4,3-d]pyrimidin-7-yl)-5-ethynyl-6-fluoronaphthalen-2-ol]
- pIC50 [1]: 7.67

Compound: [2H]C([2H])([2H])Oc1nc(-c2cc(O)cc3ccc(F)c(C#C)c23)c(F)c2nc(OC[C@@]34CCCN3C/C(=C\F)C4)nc(N3CC4CCC(CC)(C3)N4)c12 (stereo partly drawn) [Example 204, 4-(4-(1-ethyl-3,8-diazabicyclo [3.2.1]octan-3-yl)-8-fluoro-2-(((S,Z)-2-(fluoromethylene)tetrahydro-1H-pyrrolizin-7a(5H)-yl)methoxy)-5-(methoxy-d3)pyrido [4,3-d]pyrimidin-7-yl)-5-ethynyl-6-fluoronaphthalen-2-ol]
- pIC50 [2]: 8.41
- pIC50 [1]: 8.29

Compound: [2H]C([2H])([2H])C([2H])([2H])[C@@]12CC[C@@H](CN(c3nc(OC[C@@]45CCCN4C/C(=C\F)C5)nc4c(F)c(-c5ccc(F)c6sc(N)c(C#N)c56)c(Cl)cc34)C1)N2 [Example 360, 2-amino-4-(6-chloro-4-((1R,5S)-1-(ethyl-d5)-3,8-diazabicyclo [3.2.1]octan-3-yl)-8-fluoro-2-(((S,Z)-2-(fluoromethylene)tetra-hydro-1H-pyrrolizin-7a(5H)-yl)methoxy)quinazolin-7-yl)-7-fluoro-benzo[b]thiophene-3-carbonitrile]
- pIC50 [2]: 7.69

Compound: C#Cc1c(F)ccc2cc(O)cc(-c3ncc4c(N5C[C@H]6CC[C@@H](C5)N6)nc(OC[C@@]56CCCN5C/C(=C\F)C6)nc4c3F)c12 [Reference Compound 1, 4-(4-((1R,5S)-3,8-diazabicyclo [3.2.1]octan-3-yl)-8-fluoro-2-(((S,Z)-2-(fluoromethylene)tetrahydro-1H-pyrrolizin-7a(5H)-yl)methoxy)pyrido[4,3-d]pyrimidin-7-yl)-5-ethynyl-6-fluoronaphthalen-2-ol, reference compound]
- AUC ([4]; iv, 2 mg/kg): 688 ng·h/mL
- Cmax ([4]; iv, 2 mg/kg): 1690 ng/mL
- half-life ([4]; iv, 2 mg/kg): 10.5 h
- AUC ([4]; po, 10 mg/kg): 82.6 ng·h/mL
- Cmax ([4]; po, 10 mg/kg): 33.2 ng/mL
- bioavailability ([4]; po, 10 mg/kg): 2.4%
- half-life ([4]; po, 10 mg/kg): 2.6 h

Compound: C#Cc1c(F)ccc2cc(O)cc(-c3ncc4c(N5C[C@H]6CC[C@@H](C5)N6)nc(OC[C@@]56CCCN5C/C(=C/F)C6)nc4c3F)c12 [Reference Compound 2, 4-(4-((1R,5S)-3,8-diazabicyclo [3.2.1]octan-3-yl)-8-fluoro-2-(((S,E)-2-(fluoromethylene)tetrahydro-1H-pyrrolizin-7a(5H)-yl)methoxy)pyrido[4,3-d]pyrimidin-7-yl)-5-ethynyl-6-fluoronaphthalen-2-ol, reference compound]
- AUC ([4]; iv, 2 mg/kg): 718 ng·h/mL
- Cmax ([4]; iv, 2 mg/kg): 1350 ng/mL
- half-life ([4]; iv, 2 mg/kg): 14.1 h
- AUC ([4]; po, 10 mg/kg): 43.2 ng·h/mL
- Cmax ([4]; po, 10 mg/kg): 27.7 ng/mL
- bioavailability ([4]; po, 10 mg/kg): 1.2%
- half-life ([4]; po, 10 mg/kg): 2.3 h

Compound: C#Cc1c(F)ccc2cc(O)cc(-c3ncc4c(N5C[C@H]6CC[C@@H](C5)N6)nc(OC[C@@]56CCCN5CC(=C)C6)nc4c3F)c12 [Reference Compound 3, 4-(4-((1R,5S)-3,8-diazabicyclo [3.2.1]octan-3-yl)-8-fluoro-2-(((S)-2-methylenetetrahydro-1H-pyrrolizin-7a(5H)-yl)methoxy)pyrido[4,3-d]pyrimidin-7-yl)-5-ethynyl-6-fluoronaphthalen-2-ol, reference compound]
- AUC ([4]; po, 10 mg/kg): 27.1 ng·h/mL
- Cmax ([4]; po, 10 mg/kg): 10.7 ng/mL
- half-life ([4]; po, 10 mg/kg): 2.6 h

— US20260207605A1, “KRAS G12D INHIBITORS AND USES THEREOF” (Abbisko Therapeutics Co., Ltd., priority 2022, published 2026)
